From ChEMBL document CHEMBL3286094, “Synthesis and biological evaluation of novel bisbenzimidazoles as Escherichia coli topoisomerase IA inhibitors and potential antibacterial agents” (J Med Chem, 2014)

Key:
Escherichia coli [1] = assay: Antibacterial activity against ampicillin/chloramphenicol/ciprofloxacin/gentamicin/tetracycline-resistant Escherichia coli 401 assessed as growth inhibition after 18 to 24 hrs by broth microdilution method; format: functional
Escherichia coli [2] = assay: Antibacterial activity against ampicillin/chloramphenicol/tetracycline/trimethoprim/ciprofloxacin-resistant Escherichia coli KK45 isolated from water source assessed as growth inhibition after 18 to 24 hrs by broth microdilution method
Escherichia coli [3] = assay: Antibacterial activity against ciprofloxacin-resistant Escherichia coli 72 assessed as growth inhibition after 18 to 24 hrs by broth microdilution method; format: functional
Escherichia coli [4] = assay: Antibacterial activity against gentamicin/kanamycin/tetracycline/nalidixic acid-resistant Escherichia coli 360 assessed as growth inhibition after 18 to 24 hrs by broth microdilution method; format: functional
Escherichia coli [5] = assay: Bactericidal activity against chloramphenicol/ampicillin/trimethoprim/ciprofloxacin/nalidixic acid-resistant Escherichia coli 59 by agar plating method; format: functional
Escherichia coli [6] = assay: Antibacterial activity against ampicillin/tetracycline/piperacillin-resistant Escherichia coli WB31 isolated from water source assessed as growth inhibition after 18 to 24 hrs by broth microdilution method
Escherichia coli [7] = assay: Bactericidal activity against cefazolinl/ampicillin/piperacillin/cefuroxime/cefepime/cefotaxime/tetracycline/trimethoprim-resistant Escherichia coli KK16 isolated from water source by agar plating method
Escherichia coli [8] = assay: Antibacterial activity against Escherichia coli ATCC 25922 assessed as growth inhibition after 18 to 24 hrs by broth microdilution method; format: functional
Escherichia coli [9] = assay: Antibacterial activity against cefazolinl/ampicillin/piperacillin/cefuroxime/cefepime/cefotaxime/tetracycline/trimethoprim-resistant Escherichia coli KK16 isolated from water source assessed as growth inhibition after 18 to 24 hrs by broth microdilution method
Escherichia coli [10] = assay: Bactericidal activity against Escherichia coli DH5[alpha] by agar plating method; format: functional
Escherichia coli [11] = assay: Antibacterial activity against multidrug-resistant Escherichia coli IP9 isolated from water source assessed as growth inhibition after 18 to 24 hrs by broth microdilution method
Escherichia coli [12] = assay: Bactericidal activity against cefazolinl/ampicillin/piperacillin/cefuroxime/cefepime/cefotaxime/tetracycline/ciprofloxacin-resistant Escherichia coli NG3 isolated from water source by agar plating method
Escherichia coli [13] = assay: Antibacterial activity against tetracycline/trimethoprim-resistant Escherichia coli IST isolated from water source assessed as growth inhibition after 18 to 24 hrs by broth microdilution method
Escherichia coli [14] = assay: Bactericidal activity against multidrug-resistant Escherichia coli IS 54 isolated from water source by agar plating method; conditions: IS 54, Water
Escherichia coli [15] = assay: Bactericidal activity against ampicillin/tetracycline/piperacillin-resistant Escherichia coli WB31 isolated from water source by agar plating method
Escherichia coli [16] = assay: Antibacterial activity against ampicillin/ciprofloxacin/gentamicin/tetracycline-resistant Escherichia coli 555 assessed as growth inhibition after 18 to 24 hrs by broth microdilution method; format: functional
Escherichia coli [17] = assay: Bactericidal activity against ampicillin/trimethoprim/piperacillin-resistant Escherichia coli MKNJ isolated from water source by agar plating method
Escherichia coli [18] = assay: Antibacterial activity against chloramphenicol/ampicillin/kanamycin/trimethoprim/ciprofloxacin/nalidixic acid-resistant Escherichia coli 151 assessed as growth inhibition after 18 to 24 hrs by broth microdilution method; format: functional
Escherichia coli [19] = assay: Antibacterial activity against ampicillin/trimethoprim/piperacillin-resistant Escherichia coli MKNJ isolated from water source assessed as growth inhibition after 18 to 24 hrs by broth microdilution method
Escherichia coli [20] = assay: Antibacterial activity against multidrug-resistant Escherichia coli IS 54 isolated from water source assessed as growth inhibition after 18 to 24 hrs by broth microdilution method; conditions: IS 54, Water
Escherichia coli [21] = assay: Bactericidal activity against Escherichia coli ATCC 25922 by agar plating method; format: functional
Escherichia coli [22] = assay: Antibacterial activity against cefazolinl/ampicillin/piperacillin/cefuroxime/cefepime/cefotaxime/tetracycline/ciprofloxacin-resistant Escherichia coli NG3 isolated from water source assessed as growth inhibition after 18 to 24 hrs by broth microdilution method
Escherichia coli [23] = assay: Bactericidal activity against tetracycline/trimethoprim-resistant Escherichia coli IST isolated from water source by agar plating method
Escherichia coli [24] = assay: Antibacterial activity against ampicillin/trimethoprim/cefazolinl/piperacillin/cefuroxime/cefoxitine/cefepime/cefotaxime-resistant Escherichia coli KP21 isolated from water source assessed as growth inhibition after 18 to 24 hrs by broth microdilution method
Escherichia coli [25] = assay: Antibacterial activity against ampicillin/trimethoprim/nalidixic acid-resistant Escherichia coli 118 assessed as growth inhibition after 18 to 24 hrs by broth microdilution method; format: functional
Escherichia coli [26] = assay: Antibacterial activity against ampicillin/kanamycin/trimethoprim/tetracyclin/ciprofloxacin/nalidixic acid-resistant Escherichia coli 81 assessed as growth inhibition after 18 to 24 hrs by broth microdilution method; format: functional
Escherichia coli [27] = assay: Antibacterial activity against chloramphenicol/ampicillin/kanamycin/trimethoprim/ciprofloxacin/nalidixic acid-resistant Escherichia coli 132 assessed as growth inhibition after 18 to 24 hrs by broth microdilution method; format: functional
Escherichia coli [28] = assay: Antibacterial activity against ampicillin/tetracycline/gentamicin-resistant Escherichia coli 451 assessed as growth inhibition after 18 to 24 hrs by broth microdilution method; format: functional
Escherichia coli [29] = assay: Bactericidal activity against ampicillin/trimethoprim/nalidixic acid-resistant Escherichia coli 118 by agar plating method; format: functional
Escherichia coli [30] = assay: Bactericidal activity against ampicillin/tetracycline/gentamicin-resistant Escherichia coli 451 by agar plating method; format: functional
Escherichia coli [31] = assay: Antibacterial activity against Escherichia coli DH5[alpha] assessed as growth inhibition after 18 to 24 hrs by broth microdilution method; format: functional
Escherichia coli [32] = assay: Bactericidal activity against chloramphenicol/ampicillin/kanamycin/trimethoprim/ciprofloxacin/nalidixic acid-resistant Escherichia coli 132 by agar plating method; format: functional
Escherichia coli [33] = assay: Bactericidal activity against ampicillin/ciprofloxacin/gentamicin/tetracycline-resistant Escherichia coli 555 by agar plating method; format: functional
Escherichia coli [34] = assay: Bactericidal activity against ampicillin/trimethoprim/cefazolinl/piperacillin/cefuroxime/cefoxitine/cefepime/cefotaxime-resistant Escherichia coli KP21 isolated from water source by agar plating method

CCCN1CCN(c2ccc3nc(-c4ccc5nc(-c6ccc(OCC)cc6)[nH]c5c4)[nH]c3c2)CC1
0.8 µg/mL: MIC90 (Escherichia coli [31])
1.6 µg/mL: MIC90 (Escherichia coli [4]) | MIC90 (Escherichia coli [20]) | MIC90 (Escherichia coli [26])
0.2 µg/mL: MIC50 (Escherichia coli [8]) | MBC (Escherichia coli [10]) | MIC50 (Escherichia coli [31])
6.8 µg/mL: MIC90 (Escherichia coli [16])
4 µg/mL: MBC (Escherichia coli [5]) | MIC50 (Escherichia coli [16]) | MBC (Escherichia coli [17]) | MBC (Escherichia coli [32]) | MBC (Escherichia coli [34])
3.1 µg/mL: MIC90 (Escherichia coli [3]) | MIC90 (Escherichia coli [11])
8 µg/mL: MBC (Escherichia coli [33])
3.3 µg/mL: MIC90 (Escherichia coli [8])
1.8 µg/mL: MIC90 (Escherichia coli [9])
1 µg/mL: MIC50 (Escherichia coli [1]) | MIC50 (Escherichia coli [4]) | MIC50 (Escherichia coli [11]) | MIC50 (Escherichia coli [18]) | MIC50 (Escherichia coli [19]) | MIC50 (Escherichia coli [25]) | MIC50 (Escherichia coli [26]) | MIC50 (Escherichia coli [28])
1.7 µg/mL: MIC90 (Escherichia coli [1]) | MIC90 (Escherichia coli [2]) | MIC90 (Escherichia coli [6]) | MIC90 (Escherichia coli [13]) | MIC90 (Escherichia coli [18]) | MIC90 (Escherichia coli [22]) | MIC90 (Escherichia coli [25]) | MIC90 (Escherichia coli [28])
0.4 µg/mL: MBC (Escherichia coli [21])
3.8 µg/mL: MIC90 (Escherichia coli [24])
0.5 µg/mL: MIC50 (Escherichia coli [2]) | MIC50 (Escherichia coli [6]) | MIC50 (Escherichia coli [9]) | MIC50 (Escherichia coli [13]) | MIC50 (Escherichia coli [20]) | MIC50 (Escherichia coli [22]) | MIC50 (Escherichia coli [24])
3.5 µg/mL: MIC90 (Escherichia coli [19]) | MIC90 (Escherichia coli [27])
2 µg/mL: MIC50 (Escherichia coli [3]) | MBC (Escherichia coli [7]) | MBC (Escherichia coli [12]) | MBC (Escherichia coli [14]) | MBC (Escherichia coli [15]) | MBC (Escherichia coli [23]) | MIC50 (Escherichia coli [27]) | MBC (Escherichia coli [29]) | MBC (Escherichia coli [30])

COc1ccc(-c2nc3ccc(-c4nc5ccc(N6CCN(c7ccncc7)CC6)cc5[nH]4)cc3[nH]2)cc1OC
4 µg/mL: MBC (Escherichia coli [5]) | MBC (Escherichia coli [15]) | MBC (Escherichia coli [17]) | MBC (Escherichia coli [21]) | MBC (Escherichia coli [30]) | MBC (Escherichia coli [32]) | MBC (Escherichia coli [34])
1 µg/mL: MIC50 (Escherichia coli [1]) | MIC50 (Escherichia coli [3]) | MIC50 (Escherichia coli [4]) | MIC50 (Escherichia coli [9]) | MBC (Escherichia coli [10]) | MIC50 (Escherichia coli [18]) | MIC50 (Escherichia coli [20]) | MIC50 (Escherichia coli [22]) | MBC (Escherichia coli [23]) | MIC50 (Escherichia coli [25])
2 µg/mL: MIC50 (Escherichia coli [2]) | MIC50 (Escherichia coli [6]) | MBC (Escherichia coli [7]) | MIC50 (Escherichia coli [8]) | MIC50 (Escherichia coli [11]) | MBC (Escherichia coli [12]) | MBC (Escherichia coli [14]) | MIC50 (Escherichia coli [19]) | MIC50 (Escherichia coli [24]) | MIC50 (Escherichia coli [26]) | MIC50 (Escherichia coli [27]) | MIC50 (Escherichia coli [28]) | MBC (Escherichia coli [29])
1.7 µg/mL: MIC90 (Escherichia coli [4]) | MIC90 (Escherichia coli [9]) | MIC90 (Escherichia coli [18]) | MIC90 (Escherichia coli [20]) | MIC90 (Escherichia coli [25])
3.6 µg/mL: MIC90 (Escherichia coli [11]) | MIC90 (Escherichia coli [24]) | MIC90 (Escherichia coli [28])
3.7 µg/mL: MIC90 (Escherichia coli [2]) | MIC90 (Escherichia coli [6]) | MIC90 (Escherichia coli [8]) | MIC90 (Escherichia coli [19]) | MIC90 (Escherichia coli [27])
64 µg/mL: MBC (Escherichia coli [33])
3.1 µg/mL: MIC90 (Escherichia coli [26])
0.8 µg/mL: MIC90 (Escherichia coli [13])
0.5 µg/mL: MIC50 (Escherichia coli [13]) | MIC50 (Escherichia coli [31])
1.6 µg/mL: MIC90 (Escherichia coli [1]) | MIC90 (Escherichia coli [3])
16 µg/mL: MIC50 (Escherichia coli [16])
1.8 µg/mL: MIC90 (Escherichia coli [22]) | MIC90 (Escherichia coli [31])
58.6 µg/mL: MIC90 (Escherichia coli [16])
